# According to patent US20250062039A1, “ESTIMATION OF PHARMACOKINETIC (PK) PARAMETERS OF DRUG CANDIDATES USING UNIVERSAL PK PARAMETERS BOUNDS” (Tata Consultancy Services Limited, priority 2023, published 2025):
# Where “and” joins values, the source holds several entries; their conditions need not be identical. Equal values may be shown once. Read-outs that look alike come from different tables or passages of the source.
# Assays:
# [1] = 2 compartment model, cited from earlier work
# clinical [2] = settings: human, in vivo, iv; for half-life: Selected Parameter Value
# [3] = cited from earlier work; for Conc (plasma concentration): 200 mg intravenously, subject 68 kg; for Alpha / A: individual subjects W
# [4] = Published cocaine pharmacokinetics in humans, IV bolus: parameters and PCT profile (Barnett et al. 1981)
# [5] = Three compartment PK model parameter estimation from etomidate PCT profile (64 bound combinations, MWDO + Nelder Mead); design: species or system humans
# [6] = cited from earlier work; for Conc (plasma concentration): 18.3 mg intravenously, subject 60.9 kg
# [7] = in vivo, iv, 20 mg/kg
# in vivo = settings: non-human primates, iv, 20 mg/kg
# clinical [8] = settings: human, in vivo, iv
# [9] = IV infusion 10 mg; cited from earlier work
# [10] = IV Infusion, 4 mg for 5 minutes
# [11] = 200 mg IV, two compartment model
# [12] = IV bolus, Dose = 100 mg, X, Y, listed as Cocain
# [13] = IV bolus, Dose = 200 mg, Z, listed as Cocain
# [14] = IVBolus 200 mg, bi-exponential model (Table 6)
# [15] = MWDO, Upper Bound 1 of Table 18
# [16] = MWDO, Upper Bound 2 of Table 18
# [17] = MWDO, Upper Bound 3 of Table 18
# [18] = Nelder Mead, bound combination 1
# [19] = Nelder Mead, bound combination 2
# [20] = Nelder Mead, bound combination 3
# [21] = best set over all 64 bound combinations
compound,measurement,setting,value
OC(CCN1CCCCC1)(c1ccccc1)C1CC2C=CC1C2 (stereo not drawn) [Biperiden],"AUC, Value",[1]; [10],62.8 ng·h/mL
same,"CL, Value",[1]; [10],24 mL/min/kg
same,"K12, Value",[1]; [10],0.1910 h⁻¹
same,"K21, Value",[1]; [10],0.06 h⁻¹
same,"T1/2 Alpha, Value",[1]; [10],1.5 h
same,"T1/2 beta, Value",[1]; [10],24.3 h
same,"V1, Value",[1]; [10],2.6 L/kg
same,"Ka, Value",[1]; Oral 4 mg,2.18 h⁻¹
same,clearance,clinical [2],24.8 mL/min/kg
same,half-life,clinical [2]; T1/2 Alpha,1.7 h
same,half-life,clinical [2]; T1/2 beta,28.2 h
COC(=O)[C@H]1[C@@H](OC(=O)c2ccccc2)C[C@@H]2CC[C@H]1N2C [Cocaine],"A, Published parameter value",[3]; [11],2.482 µg/mL
same,"Alpha, Published parameter value",[3]; [11],3.192 h⁻¹
same,"B, Published parameter value",[3]; [11],1.997 µg/mL
same,"Beta, Published parameter value",[3]; [11],0.505 h⁻¹
same,Conc (plasma concentration),[3]; Time 0.08333333 hr,3868 ng/mL
same,Conc (plasma concentration),[3]; Time 0.33333333 hr,2476 ng/mL
same,Conc (plasma concentration),[3]; Time 0.65 hr,2031 ng/mL
same,Conc (plasma concentration),[3]; Time 1 hr,1222 ng/mL
same,Conc (plasma concentration),[3]; Time 2.13333333 hr,696 ng/mL
same,Conc (plasma concentration),[3]; Time 3.2 hr,453 ng/mL
same,Conc (plasma concentration),[3]; Time 4.16666667 hr,219 ng/mL
same,Conc (plasma concentration),[3]; Time 5.15 hr,145 ng/mL
same,Conc (plasma concentration),[3]; Time 6.15 hr,94 ng/mL
same,Alpha,"[3]; IV bolus, Dose = 100 mg, X, Y",0.0135 min⁻¹ and 0.0172 min⁻¹ and 0.0147 min⁻¹
same,A,[3]; [12],860 ng/mL and 558 ng/mL and 1139 ng/mL
same,Alpha,[3]; [12],0.0135 min⁻¹ and 0.0172 min⁻¹ and 0.0147 min⁻¹
same,B,"[3]; IV bolus, Dose = 200 mg, Sub-W",1997 ng/mL
same,Beta,"[3]; IV bolus, Dose = 200 mg, Sub-W",0.00842 min⁻¹
same,Alpha,"[3]; IV bolus, Dose = 200 mg, Z",0.0532 min⁻¹ and 0.00879 min⁻¹
same,A,[3]; [13],2482 ng/mL and 1432 ng/mL
same,Alpha,[3]; [13],0.0532 min⁻¹ and 0.00879 min⁻¹
same,"A, Value",[3]; [14],2482 ng/mL
same,"Alpha, Value",[3]; [14],0.05 min⁻¹
same,"B, Value",[3]; [14],1997 ng/mL
same,Cmax,[3]; IVBolus 200 mg,(Cmax = 3868) ng/ml
same,"Alpha, Selected Value","[4]; maximum over all subjects and doses 100, 200 mg (Rule 7)",0.0532 min⁻¹
same,"Beta, Selected Value",[4]; maximum over all subjects and doses (Rule 7),0.00842 min⁻¹
CCOC(=O)c1cncn1[C@H](C)c1ccccc1 [etomidate],"A, Globally optimized Parameter 1",[5]; [15],0.2958 µg/mL
same,"Alpha, Globally optimized Parameter 1",[5]; [15],12.67 h⁻¹
same,"B, Globally optimized Parameter 1",[5]; [15],0.1079 µg/mL
same,"Beta, Globally optimized Parameter 1",[5]; [15],1.124 h⁻¹
same,"C, Globally optimized Parameter 1",[5]; [15],0.02617 µg/mL
same,"Gamma, Globally optimized Parameter 1",[5]; [15],0.1092 h⁻¹
same,"A, Globally optimized Parameter 2",[5]; [16],0.2529 µg/mL
same,"Alpha, Globally optimized Parameter 2",[5]; [16],10.44 h⁻¹
same,"B, Globally optimized Parameter 2",[5]; [16],0.1149 µg/mL
same,"Beta, Globally optimized Parameter 2",[5]; [16],0.351 h⁻¹
same,"C, Globally optimized Parameter 2",[5]; [16],0.005408 µg/mL
same,"Gamma, Globally optimized Parameter 2",[5]; [16],0.1074 h⁻¹
same,"A, Globally optimized Parameter 3",[5]; [17],0.13 µg/mL
same,"Alpha, Globally optimized Parameter 3",[5]; [17],5.539 h⁻¹
same,"B, Globally optimized Parameter 3",[5]; [17],0.1089 µg/mL
same,"Beta, Globally optimized Parameter 3",[5]; [17],0.3627 h⁻¹
same,"C, Globally optimized Parameter 3",[5]; [17],0.005084 µg/mL
same,"Gamma, Globally optimized Parameter 3",[5]; [17],0.0375 h⁻¹
same,"A, Locally Optimized parameter 1",[5]; [18],0.3151 µg/mL
same,"Alpha, Locally Optimized parameter 1",[5]; [18],11.49 h⁻¹
same,"B, Locally Optimized parameter 1",[5]; [18],0.1076 µg/mL
same,"Beta, Locally Optimized parameter 1",[5]; [18],0.8111 h⁻¹
same,"C, Locally Optimized parameter 1",[5]; [18],0.01292 µg/mL
same,"Gamma, Locally Optimized parameter 1",[5]; [18],0.03486 h⁻¹
same,"A, Locally Optimized parameter 2",[5]; [19],0.3151 µg/mL
same,"Alpha, Locally Optimized parameter 2",[5]; [19],11.49 h⁻¹
same,"B, Locally Optimized parameter 2",[5]; [19],0.1076 µg/mL
same,"Beta, Locally Optimized parameter 2",[5]; [19],0.8111 h⁻¹
same,"C, Locally Optimized parameter 2",[5]; [19],0.01292 µg/mL
same,"Gamma, Locally Optimized parameter 2",[5]; [19],0.03486 h⁻¹
same,"A, Locally Optimized parameter 3",[5]; [20],0.3151 µg/mL
same,"Alpha, Locally Optimized parameter 3",[5]; [20],11.49 h⁻¹
same,"B, Locally Optimized parameter 3",[5]; [20],0.1076 µg/mL
same,"Beta, Locally Optimized parameter 3",[5]; [20],0.8111 h⁻¹
same,"C, Locally Optimized parameter 3",[5]; [20],0.01292 µg/mL
same,"Gamma, Locally Optimized parameter 3",[5]; [20],0.03486 h⁻¹
same,"A, Best Parameter/Best locally optimized value",[5]; [21],0.3151 µg/mL
same,"A, Initial value/globally optimized value",[5]; [21],0.2703 µg/mL
same,"Alpha, Best Parameter/Best locally optimized value",[5]; [21],11.49 h⁻¹
same,"Alpha, Initial value/globally optimized value",[5]; [21],7.1437 h⁻¹
same,"B, Best Parameter/Best locally optimized value",[5]; [21],0.1076 µg/mL
same,"B, Initial value/globally optimized value",[5]; [21],0.07389 µg/mL
same,"Beta, Best Parameter/Best locally optimized value",[5]; [21],0.8111 h⁻¹
same,"Beta, Initial value/globally optimized value",[5]; [21],0.3665 h⁻¹
same,"C, Best Parameter/Best locally optimized value",[5]; [21],0.01292 µg/mL
same,"C, Initial value/globally optimized value",[5]; [21],0.01092 µg/mL
same,"Gamma, Best Parameter/Best locally optimized value",[5]; [21],0.03486 h⁻¹
same,"Gamma, Initial value/globally optimized value",[5]; [21],0.1479 h⁻¹
same,Conc (plasma concentration),[6]; Time 0.067 hr,260 ng/mL
same,Conc (plasma concentration),[6]; Time 0.133 hr,180 ng/mL
same,Conc (plasma concentration),[6]; Time 0.25 hr,115 ng/mL
same,Conc (plasma concentration),[6]; Time 0.5 hr,88 ng/mL
same,Conc (plasma concentration),[6]; Time 1 hr,59.9 ng/mL
same,Conc (plasma concentration),[6]; Time 2 hr,32.5 ng/mL
same,Conc (plasma concentration),[6]; Time 3 hr,21.3 ng/mL
same,Conc (plasma concentration),[6]; Time 4 hr,15.8 ng/mL
same,Conc (plasma concentration),[6]; Time 5 hr,12.6 ng/mL
same,Conc (plasma concentration),[6]; Time 6 hr,11.4 ng/mL
same,Conc (plasma concentration),[6]; Time 7 hr,10.5 ng/mL
same,Conc (plasma concentration),[6]; Time 8 hr,9.9 ng/mL
same,Conc (plasma concentration),[6]; Time 9 hr,9.5 ng/mL
same,Conc (plasma concentration),[6]; Time 10 hr,9.1 ng/mL
same,"A, Published parameter value",[6]; three compartment model,0.297 µg/mL
same,"Alpha, Published parameter value",[6]; three compartment model,12.02 h⁻¹
same,"B, Published parameter value",[6]; three compartment model,0.117 µg/mL
same,"Beta, Published parameter value",[6]; three compartment model,0.935 h⁻¹
same,"C, Published parameter value",[6]; three compartment model,0.017 µg/mL
same,"Gamma, Published parameter value",[6]; three compartment model,0.064 h⁻¹
COc1cc(NCc2ccc3nc(N)nc(N)c3c2C)cc(OC)c1OC [Trimetrexate],"K10, Converted value",[7]; non-human primate,3.096 h⁻¹
same,"K10, Selected Parameter Value",[7]; non-human primate,0.0516 min⁻¹
same,"K12, Converted value",[7]; non-human primates,0.87 h⁻¹
same,"K12, Selected Parameter Value",[7]; non-human primates,0.0145 min⁻¹
same,"K13, Converted value",[7]; non-human primates,0.0075 h⁻¹
same,"K13, Selected Parameter Value",[7]; non-human primates,0.000125 min⁻¹
same,"K21, Converted value",[7]; non-human primates,1.296 h⁻¹
same,"K21, Selected Parameter Value",[7]; non-human primates,0.0216 min⁻¹
same,"K31, Converted value",[7]; non-human primates,0.093 h⁻¹
same,"K31, Selected Parameter Value",[7]; non-human primates,0.00155 min⁻¹
same,"V1, Converted value",[7]; non-human primates,0.15 L/kg
same,"V1, Selected Parameter Value",[7]; non-human primates,0.15 L/kg
same,"V2, Converted value",[7]; non-human primates,0.079 L/kg
same,"V2, Selected Parameter Value",[7]; non-human primates,0.079 L/kg
same,"cl, Converted value",[7]; non-human primates,0.252 L/h
same,clearance,in vivo,4.2 mL/min
same,half-life,"in vivo; T1/2 alpha, Converted value",0.305 h
same,half-life,"in vivo; T1/2 alpha, Selected Parameter Value",0.305 h
same,half-life,"in vivo; T1/2 beta, Converted value",1.43 h
same,half-life,"in vivo; T1/2 beta, Selected Parameter Value",1.43 h
CC(C)NCC(O)COc1ccc(CCOCC2CC2)cc1 (stereo not drawn) [Betaxolol],Vd,clinical [8],5.81 L/kg
same,clearance,clinical [8],300 mL/min
same,"AUC, Mean Value",[9],610 ng·h/mL
same,"CL, Mean Value",[9],15.1 L/h
same,"Lambda_Z, Mean Value",[9],0.0415 h⁻¹
same,"Vz, Mean Value",[9],5.07 L/kg
